Measurements published in ChEMBL document CHEMBL3507680, “University of Dundee, Gates Library screen for HepG2 cell viability”.

Assay: Human HepG2 cell viability assay in 384 well format
Assay type: toxicity, cell-based
Parameters: dose 125 nL, time 70.5 hour; concentration not given beside the values
Conditions: HepG2 cells, read-out: Inhibition

SMILES | cytotoxicity at 70.5 h [%]
O=C(Nc1ccc(F)cc1)C1CCc2ccccc2N1 (centres undefined) | -1.61
CC(=O)N(C)CC(=O)NCC1(c2cccc(C)c2)CCCC1 | 1.29
CCOCCNC(=O)c1ccn(S(=O)(=O)c2ccc(C)cc2)c1 | -2.02
Cc1nc2n(n1)CC(NCC(=O)NCCC1=CCCCC1)CC2 (centres undefined) | 0.305
Cc1ccc(S(=O)(=O)n2ccc(C(=O)NCC(F)(F)F)c2)cc1 | 1.3
CCc1ncc2c(n1)CN(C(C)C(=O)N1CCOCC1)CC2 (centres undefined) | 17
CC1(C(=O)NCCN2CCCCC2)CCCN1C(=O)c1ccccc1 (centres undefined) | -3.21
Cn1c(CCNc2nccnc2C#N)nc2cc(Cl)ccc21 | -0.473
Cn1c(CCCNc2nccnc2C#N)nc2ccccc21 | 1.96
CCC(CNC(=O)c1nc(=O)[nH][nH]1)Oc1ccccc1C(F)(F)F (centres undefined) | 1.22
Cc1nc(NC(=O)NCc2nc3cccc(C)c3n2C)oc1C | 13.5
CSCCN(C)C(=O)C1(c2ccc(F)cc2F)CCOCC1 | -0.975
CCc1nnc(C(C)N(C)Cc2c(C)nn(-c3ccccc3)c2C)o1 (centres undefined) | -1.32
CC(NCC1CCN(CCO)CC1)c1cccc(Cl)c1 (centres undefined) | -2.07
CC(NCC1CCN(CCO)CC1)c1ccc(Cl)cc1 (centres undefined) | 10.5
CN(Cc1ccccc1NCc1cccnc1)C(=O)c1cccs1 | -2.02
COc1ccc(C)cc1CN(Cc1ncc(C)o1)C1CCN(C)C1 (centres undefined) | 14.5
CCOc1nnc(CN(Cc2ccccc2)CC(O)c2ccco2)s1 (centres undefined) | -10.6
CN(Cc1ccc(Br)s1)Cn1nc(-c2ccc(F)cc2)oc1=O | -4.35
O=C1NCCCCC1NS(=O)(=O)N1CCCCCC1 (centres undefined) | -13.8
CC1CCN(S(=O)(=O)NC2CCCCNC2=O)CC1 (centres undefined) | -5.25
CN(C(=O)c1ccc(C#N)cc1)C1CCN(c2ccccn2)CC1 | 12.7
CN(C(=O)Nc1cccc(C#N)c1)C1CCN(c2ccccn2)CC1 | -8.89
Cc1occc1C(=O)NC1CCN(C(=O)Nc2cccnc2)CC1 | -5.69

SMILES | cytotoxicity at 70.5 h [%]
Cc1ncc(CN(C)c2nc3c(cnn3C(C)(C)C)c(=O)[nH]2)s1 | 11.8
Cn1nnc2cc(C(=O)NS(=O)(=O)Cc3ccc(F)cc3)ccc21 | -12.6
Cc1cc(C(=O)N2CCC(NC(=O)c3cccnc3)CC2)c(C)o1 | -9.02
CC1(C)CCC(CC(=O)O)c2ccccc21 (centres undefined) | -3.28
CCC(Nc1ccc(Oc2ccc(C#N)cc2OC)cc1)C(N)=O (centres undefined) | 5.26
Cc1nc(-c2ccsc2)ccc1C(=O)N1CCn2c(C)nnc2C1 | 11.2
Cc1nc(C(NC(=O)C2CCCC2)c2ccccc2F)no1 (centres undefined) | -9.04
O=C(Nc1ccc(F)cc1)NC1(CCO)CCOCC1 | -7.29
OC[C@@H](O)CN(CCC(F)(F)F)c1ncc(Br)cn1 | 14.1
COc1cc(S(=O)(=O)Nc2cn[nH]c2)ccc1Br | -12.7
O=S(=O)(Nc1cn[nH]c1)c1ccc(Br)c(F)c1 | -2.34
CCc1noc(CC)c1CNC(=O)Nc1ccc2[nH]nnc2c1 | -4.16
COc1nc(C)ccc1CNC(=O)NC(C)(C)c1ncc(C)s1 | -5.61
CN(CCOc1cccc(Cl)c1)Cc1nnc(C(C)(C)C)o1 | -2.27
CC(C)C(=O)N1CCN(CCOc2cccc(C#N)c2)CC1 | -5.29
Cc1nnc(CN(C)CCCOc2ccc(Cl)cc2)o1 | -10.2
COCC(C)(CCO)NC(=O)Nc1cccc(Br)c1C (centres undefined) | 7.98
COCCC(=O)N1CCCC1c1cccc(C)c1C (centres undefined) | 23.9
CNS(=O)(=O)c1ccc(CNC(=O)c2ccccn2)cc1 | -9.5
COc1cccc(CCNC(=O)CCS(=O)(=O)C2CCCC2)c1 | -12.4
Cc1nn(-c2ccccc2)nc1C(=O)NCC(c1ccsc1)N(C)C (centres undefined) | 13.1
Cc1cccc(CCNC(=O)CCS(=O)(=O)C2CCCC2)c1 | -5.57
Cc1nnc2n1CCN(C(=O)c1cnc(C3CC3)s1)C2 | -2.96
CS(=O)(=O)NC1CCN(CCc2ccccc2)CC1 | -9.51

SMILES | cytotoxicity at 70.5 h [%]
CC(NC(=O)Nc1nnc(-c2ccccn2)s1)C(=O)OC(C)(C)C (centres undefined) | -11.7
Cc1noc(CS(=O)(=O)CC(=O)NC(C)c2ccccc2)n1 (centres undefined) | -12.5
CC(C)OC(=O)CCNC(=O)Nc1cccc2ncccc12 | 8.18
CCC(CC)(CC)NC(=O)Nc1nnc(-c2ccccn2)s1 | -13.2
CCOc1cc(CNC(=O)c2cc(-c3ccccn3)no2)ccn1 | -6.7
Cc1cccc(C2CCCN2C(=O)CN(C)S(C)(=O)=O)c1C (centres undefined) | -5.26
CS(=O)(=O)CCSCc1ccc(Br)c(F)c1 | -1.55
COCc1noc(-c2nn(-c3ccc(F)c(F)c3)c3c2CCC3)n1 | 26
O=C(Nc1ccn(Cc2cccc3cccnc23)n1)C1COCCO1 (centres undefined) | -8.35
Cc1nc(C2CCCC2)sc1C(N)=O | 12
CS(=O)(=O)CCCSCc1cc(F)cc(Br)c1 | -4.67
CC(C)NC(=O)CN(C)C1CCN(c2ccc(C#N)cn2)CC1 | 0.463
CC(C)c1nsc(NC2CC(=O)N(C(C)(C)C)C2)n1 (centres undefined) | -8.61
NC(=O)CCSCc1ccc(Br)c(F)c1 | -8.58
CCNC(=O)N(C)CCCc1n[nH]c(N)c1C#N | 17.3
COCc1noc(-c2nn(-c3ccc(F)cc3)c3c2CCC3)n1 | -8.74
O=C(NC1CCN(c2cc(-n3ccnc3)ncn2)CC1)c1ccncc1 | -10.4
Cc1cc2n(n1)CC(CNCCc1cnn(C)c1)CN2 (centres undefined) | 34.9
Cc1ccc(OCCCNC(=O)Cc2nc3ncccn3n2)cc1 | -13.7
O=C1NCCN1C1CCN(c2ccnc(-c3ccccc3)n2)CC1 | -7.99
CC(C)Sc1ccc(C(C)NC(=O)CNS(C)(=O)=O)cc1 (centres undefined) | 17
O=C(CCN1CCc2[nH]nc(C(F)(F)F)c2C1)Nc1ccccc1 | -2.13
CC(C)N(Cc1ccc(C#N)cc1)C(=O)NCCNc1ncccn1 | -12.7
N#Cc1ccc(NC(=O)N2CCCCC2CN2CCCC2=O)cc1 (centres undefined) | -11

SMILES | cytotoxicity at 70.5 h [%]
FC(F)(F)c1n[nH]c2c1CN(CCc1ccccn1)CC2 | 13.8
CCSc1ccc(C(C)NC(=O)CCS(C)(=O)=O)cc1 (centres undefined) | -9.87
CN1CCN(C2CCN(c3ccnc(-c4ccccc4)n3)CC2)C1=O | 6.14
CN(C)c1cc2c(nn1)CCN(C(=O)c1cc3ccccc3[nH]c1=O)C2 | -15.9
Cc1cccc(NC(=O)N(CCC(F)(F)F)C[C@H](O)CO)c1 | -5.55
CSCCC(C)NC(=O)N1CCSC(C)(C)C1 (centres undefined) | 22.4
O=C(c1ncncc1Cl)N1CCC2(CCCC2)CC1 | -5.92
Cc1nc(NC(=O)OC(C)(C)C)sc1C(=O)O | 21.2
c1nc(CSc2nnc(C3CC3)s2)cs1 | 1.83
CC(C)N(Cc1ccc(C#N)cc1)C(=O)Nc1ccncc1 | -9.08
COCCC(C)NC(=O)N1CCSC(C)(C)C1 (centres undefined) | -10.1
Cc1cnc(CNS(=O)(=O)CCC2CCCO2)o1 (centres undefined) | -12.3
CSCC(C)CNC(=O)N1CCSC(C)(C)C1 (centres undefined) | -2.74
Cc1ccc(NC(=O)NCC(c2cnn(C)c2)N(C)C)c(C)c1 (centres undefined) | -11
COCCc1noc(CN(C)c2nccc(C)n2)n1 | -6.87
O=S(=O)(NC1CCC2(CC1)OCCO2)c1cccc(Br)c1 | 12
CC(C)c1noc(CNc2ccc(OC(F)F)cc2OC(F)F)n1 | 8.88
O=S(=O)(NC1CC1)c1cccc(Br)c1 | 3.01
O=S(=O)(NC1CCC2(CC1)OCCO2)c1ccccc1Br | -1.96
O=C(Nc1ccc(-n2ccnc2)c(F)c1)C1CCN(C(=O)C2CC2)CC1 | -1.97
O=C(Nc1ccc(-n2cncn2)c(F)c1)C1CCN(C(=O)C2CC2)CC1 | 1.9
Cc1ccc(-c2n[nH]cc2CNCC2CCc3nnc(C)n3C2)cc1 (centres undefined) | -0.696
Cc1cccc(CNC(=O)Nc2ccc3c(c2)CCCC(=O)N3)c1 | -1.4
Cc1ccc(C(=O)NCCCC2(C3OCCO3)CCOCC2)cc1C | 1.93

SMILES | cytotoxicity at 70.5 h [%]
CCc1ccc(C(=O)NCCCC2(C3OCCO3)CCOCC2)cc1 | 11.6
Cc1cnn(CCCOc2ccc3c(c2)OCO3)c1 | -0.603
CCc1nc(C2CCCN2c2ncc(C(N)=O)cc2Cl)no1 (centres undefined) | 3.61
CCS(=O)(=O)NCCCNc1ncnc2cc(F)c(F)cc12 | -0.956
CCc1nsc(N2CCn3c(nnc3C(F)(F)F)C2)n1 | 2.89
Cc1cc(NC(=O)N(C)C2CCCN(c3ccccc3)C2=O)n(C)n1 (centres undefined) | -2.17
O=C(CCc1cscn1)N1CCC(C(=O)O)(c2ccccc2)CC1 | 4.76
CN1CCN(C(=O)C2CC=CC2)c2ccccc21 | 9.41
CCc1nc(C2CCCN2c2ncc(C(F)(F)F)cc2Cl)no1 (centres undefined) | 1.13
CCc1n[nH]c(C2CN(Cc3csc(C4CCCC4)n3)CCO2)n1 (centres undefined) | 6.69
CN(C)c1ccc(NC(=O)N2CCCC2c2ccsc2)cn1 (centres undefined) | -12.1
Cc1cc(C)c(CNc2ncnc3ccsc23)c(=O)[nH]1 | -9.82
COc1ccc(NC(=O)N2CCCCC2c2ncc[nH]2)cc1 (centres undefined) | -7.7
Cc1cc(C)c(CNc2ncnc3ccccc23)c(=O)[nH]1 | -2.78
Cc1cc(C)c(CNc2cnc3ccccc3n2)c(=O)[nH]1 | 59.4
N#Cc1ccc(OC2CCN(CC(=O)NCC(F)(F)F)CC2)cc1 | -12.8
N#Cc1ccc(SCCC(=O)N(Cc2cccnc2)C2CC2)cc1 | -7.83
N#Cc1ccc(OC2CCN(C(=O)COCC3CCCO3)CC2)cc1 (centres undefined) | -9.76
CCc1noc(CS(=O)(=O)c2cccc(OC)c2)n1 | 4.71
CS(=O)(=O)CCC(=O)NC(Cc1ccccc1)C1CC1 (centres undefined) | -4.37
CCCn1nccc1NC(=O)c1ccc(Cl)c(N2CCNC2=O)c1 | -2.55
CCn1nc(C)cc1C(=O)N1CCOc2cc(C)ccc21 | -7.11
Cc1n[nH]c(C2CN(Cc3csc(C4CCCC4)n3)CCO2)n1 (centres undefined) | -6.59
